The values that follow come from patent US20260209228A1 (Elanco Tiergesundheit AG, priority 2018, published 2026).

The subject of test [1] is L. sigmodontis. Description: L.s. model (Example E). The note with it: mice infected s.c. with L. sigmodontis larvae; oral gavage, dose between 1×3 mg/kg and 5×32 mg/kg; necropsy 5 weeks after infection.
Description: Mice, injected subcutaneously with infective L. sigmodontis larvae, were subsequently treated with the test article formulated in eg DMSO/PEG 2/1, by oral gavage at a dose in a range between 1×3 mg/kg up to 5×32 mg/kg (one dose per day for 5 consecutive days). At necropsy 5 weeks after infection, efficacy is calculated by counting developed larvae vs. untreated animals using Abbot's formula.
Test [2] has as its system D. immitis microfilariae. Briefly: Dog heart worm microfilariae motility inhibition (Example A). It counts as cell-based. The note with it: read-out: EC50 (motility inhibition).
The test system of test [3] is H. contortus (H.c.) larvae. Description: Ruminant gastrointestinal H. contortus larvae motility inhibition (Example B). The note with it: Haemonchus contortus, read-out: EC50 (motility inhibition).
Description: H.c. eggs isolated from lamb fecal matter are allowed to hatch overnight. Test compounds are diluted in DMSO and added to a 96-well plate containing appropriate media. H.c. larvae are added to each well and plates are incubated for the desired time(s). Motility is assessed using an LCD camera imaging system. Percent motility inhibition values are generated relative to the average of the DMSO-only wells.
Test [4] concerns H. contortus. Description: Gastro intestinal nematodes jird model, H. contortus only (Example C). The note with it: jirds; H. contortus from stomach; oral, Day 6 after infection, dose between 1×3 mg/kg and 1×32 mg/kg; necropsy three days after treatment.
Description: Jirds (Meriones unguiculatus), are artificially infected by gavage with third instar larvae each of T. colubriformis and H. contortus. Then treated orally with the test compound formulated in eg DMSO/PEG 2/1, on Day 6 after infection at a dose in a range between 1×3 mg/kg up to 1×32 mg/kg. Three days after treatment, gerbils are euthanized and dissected to recover H. contortus from stomach and T. colubriformis from the small intestine. Efficacy is expressed as a % reduction in worm numbers in comparison with a placebo treated group, using the Abbot's formula.

What is called EC50 is the concentration at which the effect is half-maximal. On to `CN(C)c1c(C(=O)N[C@H]2CCOc3ccccc32)cnc2c(-n3ccc4cc(Cl)ccc43)nccc12` [Example 1.8], for which the “efficacy (developed larvae vs. untreated animals, Abbot's formula)” value in test [1] is reported as above 70%. Besides, the EC50 is below 0.1 mg/L in test [2] and below 1 mg/L in test [3].

In the case of `CN(C)c1c(C(=O)N[C@H]2CCOc3ccccc32)cnc2c(-c3cc(F)cc(F)c3F)nccc12` [Example 1.50, N-[(4S)-chroman-4-yl]-4-(dimethylamino)-8-(2,3,5-trifluorophenyl)-1,7-naphthyridine-3-carboxamide], the EC50 is below 0.1 mg/L in test [2] and below 1 mg/L in test [3]. Also, the “efficacy against He (% reduction in worm numbers vs placebo treated group, Abbot's formula)” value in test [4] was above 90%.
